{"source": "patent US20130007910A1", "about": "“STRUCTURE OF THE BRASS[…] BRI1, AND MODULATION OF BRI1 SIGNALING” (Salk Institute for Biological Studies (027731), priority 2011, published 2013)", "origin": "cited, not measured here", "biological_target": "T1, BRI1 (Arabidopsis thaliana, UniProt O22476)", "T1 sequence (O22476 24-1196)": "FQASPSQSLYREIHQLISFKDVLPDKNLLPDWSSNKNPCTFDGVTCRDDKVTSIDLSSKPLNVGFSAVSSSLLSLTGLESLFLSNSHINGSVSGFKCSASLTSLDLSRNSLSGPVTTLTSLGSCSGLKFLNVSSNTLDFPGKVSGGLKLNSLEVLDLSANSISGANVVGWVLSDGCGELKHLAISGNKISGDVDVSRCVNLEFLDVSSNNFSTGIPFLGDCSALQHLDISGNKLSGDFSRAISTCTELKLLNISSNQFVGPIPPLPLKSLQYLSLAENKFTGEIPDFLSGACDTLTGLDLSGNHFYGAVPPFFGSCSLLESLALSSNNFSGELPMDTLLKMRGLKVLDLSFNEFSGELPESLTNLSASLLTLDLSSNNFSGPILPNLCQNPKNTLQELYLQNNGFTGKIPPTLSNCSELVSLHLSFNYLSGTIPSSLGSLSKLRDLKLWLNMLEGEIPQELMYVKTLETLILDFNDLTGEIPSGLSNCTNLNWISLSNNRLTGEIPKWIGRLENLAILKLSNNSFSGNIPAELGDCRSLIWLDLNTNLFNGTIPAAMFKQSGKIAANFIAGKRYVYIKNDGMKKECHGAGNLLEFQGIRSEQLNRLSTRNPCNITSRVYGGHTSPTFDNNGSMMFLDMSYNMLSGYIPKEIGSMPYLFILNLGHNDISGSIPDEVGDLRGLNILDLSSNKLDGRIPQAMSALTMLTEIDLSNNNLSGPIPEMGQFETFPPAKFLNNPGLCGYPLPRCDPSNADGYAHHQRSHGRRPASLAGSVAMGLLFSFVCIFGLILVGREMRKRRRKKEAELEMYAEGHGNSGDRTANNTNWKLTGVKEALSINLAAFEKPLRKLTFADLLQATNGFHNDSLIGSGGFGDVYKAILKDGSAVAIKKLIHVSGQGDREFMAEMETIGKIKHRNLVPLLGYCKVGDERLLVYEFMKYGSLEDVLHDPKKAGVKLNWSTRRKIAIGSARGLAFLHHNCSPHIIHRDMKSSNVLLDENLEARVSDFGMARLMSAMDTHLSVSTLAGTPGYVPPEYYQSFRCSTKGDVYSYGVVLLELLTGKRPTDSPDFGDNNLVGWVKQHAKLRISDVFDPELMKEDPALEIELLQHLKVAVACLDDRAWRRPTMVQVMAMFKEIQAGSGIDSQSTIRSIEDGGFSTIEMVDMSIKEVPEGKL", "details": "for recognition of steroid ligand by BRI1: known behaviour, explained from the co-crystal structure (alkyl side chain pocket, B-ring contacts)"}
{"compound": "CC(C)[C@H](C)[C@@H](O)[C@H](O)[C@@H](C)[C@H]1CC[C@H]2[C@@H]3COC(=O)[C@H]4C[C@H](O)[C@H](O)C[C@]4(C)[C@H]3CC[C@]12C", "note": "[brassinolide]", "values": [{"measurement": "affinity of binding to BRI1", "setting": "stated in words, no method or figure given", "value": "nanomolar"}]}
{"compound": "CC(C)[C@H](C)[C@@H](O)[C@H](O)[C@@H](C)[C@H]1CC[C@H]2[C@@H]3CC(=O)[C@H]4C[C@H](O)[C@H](O)C[C@]4(C)[C@H]3CC[C@]12C", "note": "[castasterone]", "values": [{"measurement": "recognition of steroid ligand by BRI1", "value": "tolerated by BRI1"}]}
{"compound": "C[C@H]([C@H](O)CCC(C)(C)O)[C@H]1CC[C@@]2(O)C3=CC(=O)[C@@H]4C[C@@H](O)[C@@H](O)C[C@]4(C)[C@H]3CC[C@]12C", "note": "[ecdysone]", "values": [{"measurement": "recognition of steroid ligand by BRI1", "value": "cannot be recognized by BRI1"}]}
